The source of these data is US5705649A, “Protein staining compositions and methods” (Promega Corporation, priority 1995, dated 1998).

A short description of series [1]: Spectral analyses of Coomassie Blue R and Promega Green 1, 2, 3. Format: physicochemical. How it is done:
The three solutions of Promega Green 1, 2, and 3, from examples 1, 2 and 3 respectively, were diluted approximately 500 fold into a 1:1 solution of methanol:water. The spectra of the resulting solutions and of a 12 μg/ml solution of Coomassie Blue R (in 1:1 methanol:water) were recorded from 700 to 340 nm versus 1:1 methanol:water. […] All of the derivatives gave essentially identical spectra; however, the maximal absorbance of the diluted Promega Green i was about twice that seen for the other derivatives. The derivatives had two peak absorptions in the region of the spectrum scanned, a major peak at around 630 nm and a second peak at around 440 nm. The following absorbances were recorded at the peaks near 630 nm for the three Promega Green dye solutions (diluted 1:500 in 1:1 methanol:water): […]

Another series concerns protein (BSA). Description: Sensitive solution protein quantitation assay. On the set-up: species or system bovine. The following applies: 0.5M tris base, 3 hours. The method, then:
In order to conclusively determine a format for the sensitive quantitation of protein in solution using Promega Green 1, Promega Green 1 stock solution was diluted at ratios of 1:250 (v/v) and 1:1000 (v/v) into 0.5M tris base containing 0, 5, 10, 20, 40, 60, 80, and 100 μg protein (BSA) per ml of solution. […]

For series [2], the system named is Promega Mid-Range Molecular Weight Standards. Description: In-situ staining of proteins during transfer to immobilizing supports. How it is done:
The use of immobilizing supports such as nitrocellulose, nylon, glass or polyvinyl difluoride has become very common in the immunochemical or sequence analysis of proteins. […] Two Whatman 3 mM sheets were soaked in transfer buffer and these components were then used to construct a transfer sandwich composed of one sheet of Whatman paper, the SDS-PAGE gel, the Immobilon sheet, and the final sheet of Whatman. The sandwich was placed in a Hoeffer transfer apparatus and oriented in the apparatus such that the Immobilon side of the sandwich was oriented toward the positive electrode. The apparatus was placed at 4° C. and 10 V were applied to the apparatus for 30 minutes then the voltage was increased to 30 V for an additional 120 minutes.
The Immobilon membrane was then soaked in 45% methanol, 5% acetic acid for 2 minutes.

Series [3] has as its system Promega Mid-Range Molecular Weight Markers. Put plainly: Recovery of protein using novel recovery method (liquid reservoir in gel). The following applies: 8% SDS-PAGE gel, slots below bands. An excerpt: Because Promega Green 1 can be used to stain protein during electrophoretic separations, we determined that proteins separated by gel electrophoresis can be recovered into a liquid reservoir placed in the gel. This is possible only with in-situ stained proteins because it would not be obvious where to place the liquid reservoir otherwise.
Accordingly, an 8% SDS-PAGE gel was made, loaded and run as described in the preceding example. After the run was complete, one of the glass plates encasing the gel was removed and 1.0×0.3 cm slots were excised from the gel immediately below the 97, 66, 40, and 31 kilodalton standards The gel was then placed in a flat bed electrophoresis apparatus which had its buffer chambers filled with 25 mM tris base, 192 mM glycine (electrode buffer) to the level of the central, raised portion of the apparatus. The gel was placed in the apparatus such that the acrylamide gel above the remaining glass plate was filled with electrode buffer. The slots were also filled with electrode buffer and electric connection was made between the gel and the buffer chambers by use of Whatman 3 mM paper wicks soaked in transfer buffer and then 160 V was applied to the apparatus for 2 minutes. After this, the buffer in the slots was removed and placed in 1.5 ml Eppendorf tubes, the slots were refilled with fresh electrode buffer and the voltage was reapplied. […]

In the next series the test system is bovine serum albumin. Put plainly: Analysis of partial proteolytic products (Cleveland analysis). How it is done: The comparison of proteins by analysis of the products of partial proteolysis using SDS-PAGE electrophoresis has been reported extensively in the literature. This analysis, termed Cleveland analysis, can provide important information on many different types of covalent changes that can occur on proteins.
An 8% SDS-PAGE gel was made as described in Example 5. A 5 μl sample of 1× loading buffer containing 4 μg of Bovine serum albumin previously heated at 95° C. for 5 minutes was placed in several of the wells and electrophoresis was performed as described in Example 5.
A second […] 16% SDS-PAGE gel was made as described in Example 5.
After electrophoresis, segments of the gel containing the BSA sample were excised by use of a razor blade and loaded into three of the sample wells of the second, 16 % gel. Then, 20 μl of 1× loading buffer containing 0.5 μg of Endoprotease Glu C, 0.5 μg of Endoprotease Lys C and 0.1 μg of Alkaline Protease, respectively, was added to individual wells containing the gel slices. Also, 5 μl of a solution of 4 μg of BSA in 1× loading buffer that was previously heated to 95° C. for 15 minutes was placed in a second set of three wells. To each of these three samples was added individual 20 μl solutions containing 0.5 μg of Endoprotease Glu C, 0.5 μg of Endoprotease Lys C, or 0.1 μg of Alkaline Protease, respectively. […]

As for `CCCCCCCC(=O)N(c1ccc(OCC)cc1)c1ccc(C(=C2C=CC(=[N+](CC)Cc3cccc(S(=O)(=O)[O-])c3)C=C2)c2ccc(N(CC)Cc3cccc(S(=O)(=O)O)c3)cc2)cc1` [Promega Green 1], the “Absorbance at the peak near 630 nm” value in series [1] (diluted 1:500 in 1:1 methanol:water) is on record as 1.66. Besides, the “maximal absorbance relative to the other derivatives” value in series [1] (diluted approximately 500 fold) was “about twice”. The Absorption with protein (BSA) (dye 1:250, protein 0 μg/ml) turned out to be 0.543; in the series with protein (BSA) (dye 1:250, protein 5 μg/ml) it was 0.515; in the series with protein (BSA) (dye 1:250, protein 10 μg/ml), 0.472; with protein (BSA) (dye 1:250, protein 20 μg/ml), 0.427; in the series on protein (BSA) (dye 1:250, protein 40 μg/ml), 0.386; in the series on protein (BSA) (dye 1:250, protein 60 μg/ml), 0.358. The Absorption was 0.342 with protein (BSA) (dye 1:250, protein 80 μg/ml); 0.317 in the series on protein (BSA) (dye 1:250, protein 100 μg/ml); 0.079 with protein (BSA) (dye 1:1000, protein 0 μg/ml); 0.069 in the series on protein (BSA) (dye 1:1000, protein 5 μg/ml); 0.059 in the series on protein (BSA) (dye 1:1000, protein 10 μg/ml); 0.051 in the series on protein (BSA) (dye 1:1000, protein 20 μg/ml). The Absorption with protein (BSA) (dye 1:1000, protein 40 μg/ml) was found to be 0.048; in the series on protein (BSA) (dye 1:1000, protein 60 μg/ml) it was 0.047; with protein (BSA) (dye 1:1000, protein 80 μg/ml) it was 0.044; in the series with protein (BSA) (dye 1:1000, protein 100 μg/ml), 0.043. The “visibility of bands on membrane after enhancement” value in series [2] (45% methanol, 5% acetic acid, 2 minutes) is reported as “the protein band at all concentrations became easily visible”. Also, in series [2] (before enhancement), the “lowest protein per band visible on Immobilon membrane after transfer” value was 1.0 µg. Further, in series [3], the “capture of protein bands in liquid reservoir” value is “the desired protein bands had been captured by this method”. For the same compound, the “visibility of partial proteolytic pattern” value in the series with bovine serum albumin (30% methanol, 4% acetic acid enhancement) was “readily apparent in a very short period of time”. Further, the “interference with Cleveland type protein analysis” value in the series with bovine serum albumin (Endoprotease Glu C, Endoprotease Lys C, Alkaline Protease) was “does not interfere with Cleveland type protein analysis”.
